Experimental data from patent US9737558B2, “Peyer's patch activator” (priority 2012, dated 2017).

Assays:
[1] = system: IL-6 production in mouse Peyer's patch cells; experiment: IL-6 production induction test in Peyer's patch cell culture (ELISA); type: cell-based, C3H/HeJ mouse; details: Example 2, FIG. 4; sample untreated, versus control
Protocol: To a 25 mM acetate buffer (pH 4.5, 1 mg/mL) solution of the α-glucan fraction (1.5 mg) or the heteroglycan fraction (1.5 mg) were added exo-α-L-arabinofuranosidase (20 μL), exo-β-D-(1→3)-galactanase (20 μL), and endo-β-D-(1→4)-galactanase (5 μL), followed by enzyme reaction under conditions of 37° C. for 2 days. The obtained digest was heat-treated for 30 seconds in a boiling water bath to deactivate the enzyme. To a half of this enzyme reaction liquid (shown as “1,3/1,4-galactanase” in FIG. 4) was further added dextranase (0.25 units), followed by incubation for 2 days at 37° C., and subsequently, the enzyme was deactivated under the same conditions as the above to obtain an enzyme reaction liquid (shown as “dextranase” in FIG. 4). These reaction liquids were preserved at −20° C. until use. Preparation and culture of mouse Peyer's patch cells were performed in the same manner as in Test Example 1. An anti-mouse IL-6 primary antibody diluted to 1 μg/mL with a 50 mM carbonate-bicarbonate buffer (pH 9.6) (100 μL/well) was dispensed into an ELISA plate (Immuno-Maxisorp, Nunc) and incubated at 4° C. overnight. […] The developed yellow color was measured using a microplate reader (Multiskan JX, Thermo Electron Corp.) (measurement wavelength; 405 nm, blank wavelength; 492 nm).

[2] = system: Plasmodium yoelii NS (chloroquine-resistant strain); experiment: Oral administration test of polysaccharide fraction in combination with antimalarial agent in rodent malaria parasite (chloroquine-resistant strain) infection model; type: in vivo, Plasmodium yoelii NS in ICR mice; details: 2×10^4 infected erythrocytes; AN 3 mg/kg/day oral four times; SCE-4 600 mg/kg/day oral from 7 days before infection; versus control group (Dunnett's test)
Protocol: A procedure was performed in the same manner as in Example 4, except that the number of P. yoelii NS-infected erythrocytes intravenously injected to the tail vein was changed from 2×10^6 cells to 2×10^4 cells.
SCE-4 and AN were orally administered to ICR mice each day in a dose of 500 μL/mouse using a feeding needle. A dosage of SCE-4 was 600 mg/kg/day, and AN was dissolved in a 10% dimethylsulfoxide (DMSO) aqueous solution containing 0.5% Tween 80 and administered in a dosage of 3 mg/kg/day. The administration of SCE-4 was started 7 days before parasite infection and continued even after the plasmodium infection. The administration of AN was started 2 hours after the parasite infection and continued until Day 3 after the plasmodium infection (four times in total). In addition, SCE-4 was administered 3 hours or more after the administration of AN.
To a control group, water and a 10% DMSO aqueous solution containing 0.5% Tween 80 were orally administered, and to AN3 groups, water and a 10% DMSO aqueous solution of AN containing 0.5% Tween 80 were orally administered, and to SCE-4+AN3 groups, an SCE-4 aqueous solution and a 10% DMSO aqueous solution of AN containing 0.5% Tween 80 were orally administered.
Calculation was performed in the same manner as in Example 3.

Compound | amount of IL-6 production [1] | infection rate of erythrocytes (Parasitemia), Day 4 and Day 5 [2]
dextran | no change in the amount of IL-6 production was observed | –
C[C@H]1[C@H](OC(=O)CCC(=O)O)O[C@@H]2O[C@@]3(C)CC[C@H]4[C@H](C)CC[C@@H]1[C@@]24OO3 [AN, artesunate] | – | the infection rate significantly decreased on Day 4 and Day 5 as compared with the control group
